Measurements as given in BindingDB's records for doi:10.1021/acs.jmedchem.9b00781 (Seoul National University, 2019).

Test: Inhibition of RNA-dependent RNA polymerase in ZIKV SL0612 infected in African green monkey Vero cells assessed as reduction in virus-induced cytopathic effect measured after 96 hrs post-infection by MTS assay

Row | SMILES | EC50 [µM]
1 | CNc1ncnc2c1ncn2[C@H]1[C@H](O)[C@H](O)[C@@H](CO)C1(F)F | > 100
2 | O=c1ccn([C@H]2[C@H](O)[C@H](O)[C@@H](CO)[C@H]2F)c(=O)[nH]1 | > 100
3 | CC(C)OC(=O)[C@H](C)N[P@](=O)(OC[C@@H]1[C@@H](O)[C@@H](O)[C@H](n2ccc(=O)[nH]c2=O)C1(F)F)Oc1ccccc1 | > 100
4 | Nc1ncnc2c1ncn2[C@@H]1C[C@H](CO)[C@@H](O)[C@H]1O [3-(6-Amino-purin-9-yl)-5-hydroxymethyl-cyclopentane-1,2-diol] | 0.64
5 | O=c1ccn([C@H]2[C@H](O)[C@H](O)[C@@H](CO)[C@@H]2F)c(=O)[nH]1 | > 100
6 | Nc1ncnc2c1ncn2[C@H]1[C@H](O)[C@H](O)[C@@H](CO)C1(F)F | 0.26
7 | Nc1ccn([C@H]2[C@H](O)[C@H](O)[C@@H](CO)C2(F)F)c(=O)n1 | > 100
8 | Nc1ccn([C@H]2[C@H](O)[C@H](O)[C@@H](CO)[C@H]2F)c(=O)n1 | > 100
9 | CC(C)OC(=O)[C@H](C)N[P@](=O)(OC[C@@H]1[C@@H](O)[C@@H](O)[C@H](n2ccc(=O)[nH]c2=O)[C@@H]1F)Oc1ccccc1 | > 100
10 | CNc1ncnc2c1ncn2[C@H]1[C@H](O)[C@H](O)[C@@H](CO)[C@H]1F | > 100
11 | CC(C)OC(=O)[C@H](C)N[P@](=O)(OC[C@@H]1[C@@H](O)[C@@H](O)[C@H](n2cnc3c(N)ncnc32)C1(F)F)Oc1ccccc1 | 1.75
12 | O=c1ccn([C@H]2[C@H](O)[C@H](O)[C@@H](CO)C2(F)F)c(=O)[nH]1 | > 100
